# From patent US4894374A, “Substituted 1,2-dihydro-4h-3,1-benzoxazin-4-one derivatives inhibitors of interleukin 1” (American Home Products Corporation, priority 1988, dated 1990)
# System: IL 1-induced release of neutral protease from rabbit articular chondrocytes
# Assay: inhibition of IL 1-induced release of neutral protease from rabbit articular chondrocytes
# Format: cell-based, rabbit (New Zealand White)
# Details: Oryctolagus cuniculus, Chondrocyte, human IL 1 stimulation, 24 h, compound added 10 min before IL 1, ± S.D., read-out: % Inhibition (of protease secretion)
# Method: The ability of the compounds of the inventions to inhibit interleukin 1 is measured by the ability of the test compounds to inhibit the IL 1-induced release of neutral protease from rabbit articular chondrocytes.
# Male New Zealand White rabbits are anesthetized with 50 mg/kg of ketamine (i.m.) and killed by an intracardiac injection of 3 mls. of Nembutal. The knee joints of both legs are resected and the articular surfaces are exposed. Cartilage slices are obtained using a scalpel and are placed in a tissue culture dish (100 mm diameter) containing 10 mls of Hank's balanced salt solution (HBSS). The chondrocytes within the cartilage slices are then liberated by a series of enzyme digestions. The slices are incubated for 10 min. at 37° C. in 0.05% hyaluronidase (Sigma H-3884), rinsed with HBSS and incubated with 0.2% trypsin (Sigma T-2395) for 10 min. at 37° C. The slices are rinsed again and incubated for 10 mins. at 37° C. with 1.2% collagenase (Sigma C-5138). The slices are then rinsed again with HBSS and resuspended in 10 ml of Ham's F-12 medium containing 10% fetal bovine calf serum (FCS) and 0.2 % collagenase and incubated overnight at 37° C. in a 5% CO2 incubator. The next day, the medium containing the digested cartilage fragments and liberated chondrocytes is transferred to a 15 ml centrifuge tube and the cells are collected by centrifugation and washed twice and resuspended in Ham's F-12 medium. The cells are then plated into 24-well tissue culture plates (2×10^5 cells/well) and incubated at 37° C. until confluent (usually 4-6 days).
# The confluent chondrocytes are rinsed twice with serum-free Ham's F-12 medium and 1 ml is added to each well. Fifty μl of purified human IL 1 (100 Units/ml; Genzyme Corporation, Boston, MA) is then added to stimulate these cells to secrete neutral protease. To measure drug effects, the cells are treated with test compound 10 min. prior to addition of IL 1. The standard screening dose is 10 μM. Twenty-four hours after IL 1 stimulation, supernatant fluids are collected and assayed for neutral protease activity.
# The neutral protease activity of chondrocyte supernatant fluids is determined by their ability to degrade an insoluble protease substrate, azocoll (Sigma). Supernatants are treated for 10 min. at room temperature with 350 μM p-aminophenylmercuric acetate to activate the latent enzyme. Three hundred μl of supernatant is then mixed with 500 μl of a 20 mg/ml suspension of azocoll and incubated at 37° C. for 18-24 hrs. with gentle rocking. The mixtures are centrifuged and the amount of substrate hydrolyzed is determined by measuring the absorbance of the supernatant at 520 nm.
# Drug effects are calculated as the % change in enzyme activity (absorbance)by supernatants from drug-treated chondrocytes relative to enzyme activity of supernatants from vehicle-treated chondrocytes as follows: % Inhibition of Protease Secretion= [formula]
SMILES,inhibition at 1 µM,inhibition at 5 µM,inhibition at 10 µM
"N#Cc1ccc(N2CCC3(CC2)Nc2cc(Cl)ccc2C(=O)O3)cc1 [Example 1, 4-[7-Chloro-1,3-dihydro-4-oxospiro[2H-3,1-benzoxazine-2,4'-piperidin]-1-yl]benzonitrile]",56 ± 22%,55 ± 19%,47 ± 34%
"CS(=O)(=O)c1ccc(N2CCC3(CC2)Nc2cc(Cl)ccc2C(=O)O3)cc1 [Example 2, 7-Chloro-1'-[4-(methylsulfonyl)phenyl]spiro[2H-3,1-benzoxazine-2,4'-piperidin]-4(1H)-one]",30 ± 31%,48 ± 7%,51 ± 32%
